Results published in US8987193B2, “Nisin derivatives and the use thereof” (University College Cork—National University of Ireland, Cork, priority 2008, dated 2015).
Ends that are not written are not given here.

What was measured:
Assay in all cases: Deferred antagonism assay
Type in all cases: cell-based
Set-up in all cases: key: −, no inhibition; (+), clear zone directly above the colony; +, 1-5 mm zone; ++, 6-10 mm zone; +++, <10 mm zone
[1] = test system: Listeria monocytogenes 33015; conditions: nisin strain; L. monocytogenes 33015
Method: (§1) Deferred antagonism assays were performed by replicating strains on GM17 or GM17 x-gal agar plates and allowing them to grow overnight before overlaying with either GM17/BHI/TS/MH agar (0.75% w/v agar) seeded with the appropriate indicator strain. Zone size was calculated as the diameter of the zone of clearing minus the diameter of bacterial growth (5 mm) For higher throughput screening of N20PXX, XM21VX, XXK22T and XXX banks deferred antagonism assays were performed by replicating strains using a 96 pin replicator (Boekel) or spotting 5 μl of a fresh overnight culture on GM17 agar plates and allowing them to grow overnight. […] Additional sets of indicators were employed to further assess/reassess the bioactivity of a number of strains. […] For well-diffusion assays molten agar was cooled to 48° C. and seeded with the appropriate indicator strain. The inoculated medium was rapidly transferred into sterile Petri plates in 50 ml volumes, allowed to solidify and dried. Wells (4.6 mm in diameter) were then made in the seeded plates. Purified nisin and mutant nisins were resuspended in 0.005% acetic acid, serially diluted, 50 μl volumes were dispensed into the aforementioned wells and the plates incubated at 37° C. overnight. Bioactivity was expressed as arbitrary units/ml (AU/ml) and calculated as the reciprocal of the highest dilution that gave a definite zone multiplied by the conversion factor (i.e. 20 when 50 μl was used) (Ryan et al., 1996).

[2] = test system: Listeria monocytogenes 33083; conditions: nisin strain; L. monocytogenes 33083
Method: as §1

[3] = test system: Listeria monocytogenes 33233; conditions: nisin strain; L. monocytogenes 33233
Method: as §1

[4] = test system: Listeria monocytogenes F6854; conditions: nisin strain; L. monocytogenes F6854
Method: as §1

Substance	Activity score (zone) [1]	Activity score (zone) [2]	Activity score (zone) [3]	Activity score (zone) [4]
NisinA K22A (ITSISLCTPGCKTGALMGCNMATATCHCSIHVSK; not fully specified; also: lantibiotic: lanthionine rings and dehydro residues not placed; UniProt P13068 24-57, looked up, variant K22A) [nisin A derivative, hinge substitution K22A]	+ (+, 1-5 mm zone)	+ (+, 1-5 mm zone)	+ (+, 1-5 mm zone)	+ (+, 1-5 mm zone)
NisinA M21G (ITSISLCTPGCKTGALMGCNGKTATCHCSIHVSK; not fully specified; also: lantibiotic: lanthionine rings and dehydro residues not placed; UniProt P13068 24-57, looked up, variant M21G) [nisin A derivative, hinge substitution M21G]	−	−	−	−
NisinA M21I (ITSISLCTPGCKTGALMGCNIKTATCHCSIHVSK; not fully specified; also: lantibiotic: lanthionine rings and dehydro residues not placed; UniProt P13068 24-57, looked up, variant M21I) [nisin A derivative, hinge substitution M21I]	+ (+, 1-5 mm zone)	+ (+, 1-5 mm zone)	+ (+, 1-5 mm zone)	+ (+, 1-5 mm zone)
NisinA M21S (ITSISLCTPGCKTGALMGCNSKTATCHCSIHVSK; not fully specified; also: lantibiotic nisin: dehydrated residues and thioether rings not placed; UniProt P13068 24-57, looked up, variant M21S) [nisin A derivative, hinge substitution M21S]	+ (+, 1-5 mm zone)	+ (+, 1-5 mm zone)	+ (+, 1-5 mm zone)	+ (+, 1-5 mm zone)
